Entries after “also recorded” stand apart in the source; their conditions may differ. Where two headings read alike, the source gives them in different places. Ends that are not written are not given here.
How the values were obtained:
[1] = biological target: T1, GRP (Homo sapiens, UniProt P07492); assay: IP3 analysis for GRP in H-1299 cells; format: cell-based; conditions: for Action on second messengers: peptide GRP, IP3 or Ca2+ levels induced by GRP in H1299 cells
T1 construct: GRP is a 27 amino acid peptide; purchased Peninsula (S. Carlos, Calif.); host or cells: synthetic peptide
T1 sequence (P07492 24-50 limits assumed): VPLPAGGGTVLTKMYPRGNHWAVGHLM
Protocol: This cell line was obtained from ATCC and cultured as the other cell lines. The signal transduction pathway for GRP includes elevation of intracellular levels of IP3 and Ca^2+ and these were investigated as previously shown (Ryan et al. (1998) J. Biol. Chem., 273, 13613-13624). Briefly, to quantify IP3, contents cells were subcultured into 24-well plates (5×10^4 cells/well). After a 24 h incubation period at 37° C., the cells were incubated with 3 μCi/ml myo-[^3H]inositol in growth medium supplemented with 2% FBS for an additional 24 h. Incubation volumes were 500 μl of assay buffer/well containing 135 mM sodium chloride, 20 mM HEPES (pH 7.4), 2 mM calcium chloride, 1.2 mM magnesium sulfate, 1 mM EGTA, 20 mM lithium chloride, 11.1 mM glucose, and 0.05% BSA (v/v) with or without any of the molecules studied at 37° C. for 30 min. Experiments were terminated with 1 ml of ice-cold hydrochloric acid/methanol (0.1%, v/v). [^3H]IP3 was eluted off Dowex AG-1-X8 anion exchange columns with 2 ml of 1 mM ammonium formate and 100 mM formic acid. Each of the eluates was collected and mixed with 10 ml of scintillation mixture (BioSafe, Research Products International Corp, Mount Prospect, Ill.), and the radioactivity was measured in a LS 3801 β counter (Beckman, Somerset, N.J.).

[2] = biological target: T2, AM (Homo sapiens, UniProt P35318); assay: Primary screening: interference with binding of AM to its blocking monoclonal antibody; conditions: 1 μM compound
T2 construct: AM is a 52 amino acid peptide; purchased Peninsula (S. Carlos, Calif.); host or cells: synthetic peptide
T2 sequence (P35318 95-146 limits assumed): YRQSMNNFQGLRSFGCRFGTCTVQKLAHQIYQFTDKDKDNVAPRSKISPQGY
Protocol: Human synthetic AM was solid-phased into PVC 96-well plates (Fisher Scientific, Pittsburgh, Pa.) by incubating 50 μl of AM (at 1 nmols/μl) per well for 1 h. To solid-phase […] into the plates, these were previously treated with glutaraldehyde as described (Kasprzyk et al. (1988) Anal. Biochem. 174, 224-234). After discarding the coating solution, the plates were blocked with 200 μl per well of 1% bovine serum albumin (BSA) in phosphate buffer saline (PBS). After 1 h, this solution was aspirated off and 50 μl containing 1 μM of one of the compounds of the library in PBS was added per well. Immediately after, 50 μl of labeled antibody (at 2.4 μg/ml) were added on each well and the solution was allowed to react for 1 h. Following 3 thorough washes with 1% BSA in PBS to remove the unbound antibodies, peroxidase activity was developed using o-phenylenediamine dihydrochloride (Sigma) as a substrate. The reaction product was quantified with a plate reader (Spectra Rainbow, Tecan, Austria) at 450 nm. Each plate contained several internal controls including wells without any coating that are used to calculate non-specific binding; wells where no potential antagonists were added, which provided maximum binding; and wells where the unlabeled antibody (at 1.2 μg/ml) substituted the small molecule, as a positive inhibition control (FIG. 1B). […]

[3] = biological target: T2, AM; assay: cAMP analysis for AM in Rat2 cells; format: cell-based, rat; conditions: for variation of intracellular cAMP levels: Rat2 cells; for Action on second messengers: peptide AM, cAMP induced by 100 nM AM in Rat2 cells; for Response to second messengers: peptide target AM
Protocol: This cell line was obtained from the American Tissue Culture Collection (ATCC, Manassas, Va.) and maintained in RPMI-1640 supplemented with 10% fetal bovine serum (FBS, Invitrogen, Carlsbad, Calif.). Cells were seeded in 24-well plates at 2×10^4 cells/well and incubated at 37° C. in 5% CO2 until they reached 80% confluency. Before the assay, cells were incubated for 15 min in TIS medium (RPMI-1640 plus 10 μg/ml transferrin, 10 μg/ml insulin, and 50 nM sodium selenite) containing 1% BSA, 1 mg/ml bacitracin, and 100 μM isobutylmethylxanthine. Peptides and small molecules were applied in the same medium for 5 min at the indicated concentrations in a volume of 250 μl. The reaction was terminated by adding an equal volume of ice-cold ethanol. cAMP contents were measured using the Biotrac cAMP radioimmunoassay (Amersham Biosciences, Piscataway, N.J.), as described (Pio et al. (2001) J. Biol. Chem. 276, 12292-12300).

[4] = test system: hypertensive SHR rats; assay: Measurement of blood pressure in vivo, hypertensive SHR rats; design: species or system rat; conditions: for decrease in blood pressure from basal levels: 20 nmols/Kg intravenous; for decrease in blood pressure from basal levels / Biological activity (blood pressure): hypertensive rats; for Biological activity (blood pressure): AM superagonists, 20 nmols/Kg iv
Protocol: (§1) AM is a potent and long-lasting vasodilator Therefore it was expected that AM antagonists would elevate blood pressure and AM superagonists would decrease it further. In consequence, suspected antagonists were analyzed in normotensive rats (10-week-old Lewis/ssncr males, SAIC, Frederick, Md.) and suspected superagonists in hypertensive animals (10-week-old SHR males, Taconic Farms, Germantown, N.Y.).
(§2) Animals were anaesthetized with 3% halothane, intubated, and maintained with 1% halothane in 70% nitrous oxide and 30% oxygen (VMS Anesthesia Machine, Matrx, Medical Inc., Orchard Park, N.Y.) at 82 strokes/min. Rectal temperature was monitored through the experiment. A PE50 catheter was placed on the right femoral artery and arterial blood pressure was recorded through a P23XL transducer (Grass Instruments, Quincy, Mass.). Peptides and small molecules were injected into the right femoral vein through another catheter. All procedures were performed under a protocol approved by the National Institutes of Health.

[5] = test system: normotensive Lewis/ssncr rats; assay: Measurement of blood pressure in vivo, normotensive Lewis/ssncr rats; design: species or system rat; conditions: for Biological activity (blood pressure): AM antagonists, 20 nmols/Kg iv; for Biological activity: negative modulators of AM
Protocol: as §1, §2

[6] = biological target: T2, AM; assay: Surface plasmon resonance binding to immobilized AM; conditions: for Binding to AM kd: kinetic dissociation constant; for kon: read-out: Binding to AM ka; for Binding to AM KA: thermodynamic association constant
Protocol: Characterization of the binding between AM and the small molecules was performed immobilizing 3 μg of AM on a CM5 sensor chip by N-hydroxysuccinimide activation, followed by covalent amino coupling of the peptide to the surface, using BIAcore 3000 (Piscataway, N.J.). The remaining free surface was blocked with 1 mM ethanolamine and the matrix washed with 0.5 M NaCl solution and then re-equilibrated with binding buffer (1:200 DMSO in PBS). Eight different dilutions of each small molecule were prepared in binding buffer with concentrations ranging from 0 to 10 μM and injected from low to high concentration. Each injection was followed by a matrix regeneration step. Mass transfer control experiments were performed by injecting the same concentration of each small molecule at different flow rates (5, 15, and 75 μl/min). The data were then fitted to several models for a kinetic analysis and the binding constants calculated. The best fittings were obtained with a simple 1:1 Langmuir model.

[7] = biological target: T1, GRP; assay: Ca2+ analysis for GRP in H-1299 cells; format: cell-based
Protocol: After washing two times with TIS, 2 ml of cell suspension were placed in a Delta PTI Scan 1 spectrofluorimeter (Photon Technology International, South Brunswick, N.J.) equipped with a stir bar and water bath (37° C.). Fluorescence was measured at dual excitation wavelengths of 340 nm and 380 nm using an emission wavelength of 510 nm.

[8] = test system: Bovine retinal microvascular endothelial cells; assay: Cord formation assay in Matrigel; format: cell-based; conditions: 5 nM GRP alone
Protocol: Formation of tube-like structures was performed as described in Kubota et al. (1988) J. Cell Biol. 107, 1589-1598; Nam et al. (2003) Phytother. Res. 17, 107-111; and Macpherson et al. (2003) Mol Cancer Ther 2, 845-54. Briefly, a thin layer of Matrigel (Collaborative Biomedical Products, Bedford, Mass.) was allowed to polymerize at the bottom of 24-well plates. […] After an overnight incubation at 37° C., the tubular structures were photographed (3 pictures per well at 10×) and the number of knots per photographic field were counted as a measure of lattice complexity.

[9] = test system: GRP-induced angiogenesis; assay: Directed in vivo angiogenesis assay (DIVAA); design: species or system mice; conditions: 1 nM GRP
Protocol: Analysis and quantitation of angiogenesis was done using DIVAA as previously described (Martinez et al. (2002) J Natl Cancer Inst 94, 1226-37). Briefly, 10 mm long surgical-grade silicone tubes with only one end open (angioreactors) were filled with 20 μl of matrigel alone or mixed with GRP and the small molecules at the indicated concentrations. After the matrigel solidified, the angioreactors were implanted into the dorsal flanks of athymic nude mice (NCI colony). After 11 days, the mice were injected iv with 25 mg/ml FITC-dextran (100 μl/mouse, Sigma) 20 min before removing angioreactors. Quantitation of neovascularization in the angioreactors was determined as the amount of fluorescence trapped in the implants and was measured in a HP Spectrophotometer (Perkin Elmer).

[10] = unit inferred, read-out: calculated KD

Q: For O=NN(Cc1ccc(Cl)cc1)C(C(=O)O)c1ccccc1 (stereo not drawn) [compound 372874], which “Action on second messengers” value [1] is on record?
A: Superagonist

Q: With c1ccc(Nn2c(CCCCCCCCc3nnc(COc4ccccc4)n3Nc3ccccc3)nnc2COc2ccccc2)cc1 [compound 697165] as the molecule, how does the “competition with labeled blocking monoclonal antibody for AM-coated plate” value [2] read?
A: successful competitors

Q: And the “dose dependence of cAMP elevation” value ([3]; in the presence of 100 nM AM)?
A: dose-dependent elevation of cAMP

Q: And the “variation of intracellular cAMP levels” value ([3]; in the presence of 100 nM AM)?
A: superagonist

Q: And the “Action on second messengers” value [3]?
A: Superagonists

Q: For Nc1nc(=O)c2[nH]cnc2n1O [compound 145425], which “Action on second messengers” value [3] is on record?
A: Superagonists

Q: What about the “decrease in blood pressure from basal levels” value [4] of the same molecule?
A: 55±24 mm Hg

Q: What about the “Biological activity (blood pressure)” value [4] of the same molecule?
A: Reduces blood

Q: For Nn1c(CCCCCCCCc2nnc(COc3ccc4ccccc4c3O)n2N)nnc1COc1ccc2ccccc2c1O [compound 697162], which “Action on second messengers” value [3] is on record?
A: Superagonists

Q: CCN1CCC(O)(C(C(=O)O)c2ccccc2)CC1 (stereo not drawn) [compound 16311] was tested. Which “variation of intracellular cAMP levels” value ([3]; in the presence of 100 nM AM) did it give?
A: most active antagonists

Q: And the “Action on second messengers” value [3]?
A: Antagonists

Q: And the “Response to second messengers” value [3]?
A: Neg. modul.

Q: What about the “elevation in blood pressure, difference from basal levels” value ([5]; 20 nmols/Kg intravenous, normotensive rats) of the same molecule?
A: 127±47 mm Hg

Q: And the “Biological activity (blood pressure)” value ([5]; normotensive rats)?
A: Elevates blood

Q: What about the Biological activity [5] of the same molecule?
A: Vasodilator

Q: What about the “Binding to AM kd” value [6] of the same molecule?
A: 1.02e-05 s⁻¹

Q: And the kon [6]?
A: 1550 M⁻¹ s⁻¹

Q: What about the “Binding to AM KA” value [6] of the same molecule?
A: 1.52e+08 M⁻¹

Q: What about the Kd [6, 10] of the same molecule?
A: 6.56 nM

Q: With CS(=O)(=O)OC1CN2CCC1CC2 (stereo not drawn) [compound 79422] as the molecule, how does the “variation of intracellular cAMP levels” value ([3]; in the presence of 100 nM AM) read?
A: antagonist

Q: What about the “Action on second messengers” value [3] of the same molecule?
A: Antagonists

Q: With OCCCN=C1CCCCC1 [compound 128911] as the molecule, how does the “Action on second messengers” value [3] read?
A: Superagonists

Q: What about the “Response to second messengers” value [3] of the same molecule?
A: Posit. modul.

Q: And the “decrease in blood pressure from basal levels” value [4]?
A: 62±21 mm Hg

Q: What about the “Biological activity (blood pressure)” value [4] of the same molecule?
A: Reduces blood

Q: And the Biological activity ([4]; positive modulator of AM)?
A: Vasopressor

Q: And the “Binding to AM kd” value [6]?
A: 0.000892 s⁻¹

Q: And the kon [6]?
A: 304 M⁻¹ s⁻¹

Q: What about the “Binding to AM KA” value [6] of the same molecule?
A: 341000 M⁻¹

Q: What about the Kd [6, 10] of the same molecule?
A: 2930 nM

Q: What does the source list for OC(COc1ccccc1)CN1CCCCC1 (stereo not drawn) [compound 89435]?
A: variation of intracellular cAMP levels ([3]; in the presence of 100 nM AM): most active antagonists; Action on second messengers [3]: Antagonists; Response to second messengers [3]: Neg. modul.; Biological activity (blood pressure) ([5]; normotensive rats): Elevates blood; Biological activity [5]: Vasodilator; Binding to AM kd [6]: 0.000871 s⁻¹; kon [6]: 1020 M⁻¹ s⁻¹; Binding to AM KA [6]: 1.18e+06 M⁻¹; Kd ([6]; thermodynamic dissociation constant, read-out: Binding to AM KD): 851 nM

Q: With CCN(CC)CCC(O)(Cc1ccccc1)C(C(=O)O)c1ccccc1 (stereo not drawn) [compound 50161] as the molecule, how does the “variation of intracellular cAMP levels” value ([3]; in the presence of 100 nM AM) read?
A: most active antagonists

Q: And the “Action on second messengers” value [3]?
A: Antagonists

Q: Which results are given for Oc1c[n+](CC[n+]2cc(O)on2)no1 [compound 54671]?
A: Action on second messengers [1]: Antagonists; Response to second messengers ([1]; peptide target GRP): Neg. modul.; Ca2+ response elicited by 1 nM GRP ([7]; H1299 cells pre-exposed to compound (1 min)): dramatically reduces; Binding to AM ([6]; immobilized AM): not to bind; also recorded: No binding

Q: How did the “intracellular Ca2+” value ([7]; 1 nM GRP alone, H1299 cells) turn out when “GRP: Synthetic human gastrin releasing peptide, 27 amino acid peptide hormone (VPLPAGGGTVLTKMYPRGNHWAVGHLM; ends and bridges not checked; UniProt P07492 24-50, looked up) [reference compound]” was run?
A: marked elevation

Q: What about the “number of knots per photographic field” value [8] of the same molecule?
A: 37±5

Q: And the “angiogenic potential in vivo” value [9]?
A: exhibits angiogenic potential in vivo

Reference: patent US20120232107A1, “NON-PEPTIDE ANTAGONISTS OF GASTRIN RELEASING PEPTIDE” (The Government of the United States of America as …, priority 2003, published 2012)
